Patent publication US20260078103A1, “ISOQUINOLONES AS PI3K INHIBITORS” (OnKure, Inc., priority 2022, published 2026)
Read-outs that look alike come from different tables or passages of the source.

Assays:
Assay type in all cases: cell-based
[1] = tested on: phosphorylation of AKT (pAKT) in T47D cells expressing mutant PI3Ka (H1047R); assay: In vitro cell pAKT (Ser473) HTRF, T47D cells
Outline: (§1)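 T47D cells (RPMI, 10% FBS, 0.2 units/mL insulin) or SKBR3 cells (McCoy's 5a, 10% FBS) were seeded onto 10-point compound dilutions and incubated 6 h at 37 °C. After lysis, pAKT was detected overnight by HTRF (Eu cryptate/d2). IC50 was fitted from % inhibition relative to 0.1% DMSO and 10 uM alpelisib controls.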

[2] = tested on: phosphorylation of AKT (pAKT) in SKBR3 cells express WT PI3Ka; assay: In vitro cell pAKT (Ser473) HTRF, SKBR3 cells
Outline: as §1

[3] = tested on: T47D cells expressing mutant PI3Ka (H1047R); assay: In vitro cell proliferation, T47D cells (CellTiter-Glo); conditions: inhibition of proliferation, read-out: Avg T-47D EC50
Outline: (§2)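 EC50 values derive from a four-parameter logistic fit of luminescence-based (CellTiter-Glo) inhibition, referenced to 0.1% DMSO and 10 uM Alpelisib controls. Compound exposure lasted 72 h at 37 °C.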

[4] = tested on: SKBR3 cells express WT PI3Ka; assay: In vitro cell proliferation, SKBR3 cells (CellTiter-Glo); conditions: inhibition of proliferation
Outline: as §2

[5] = Homo sapiens, T47D, 6 h, cellular pAKT, T47D cells, mutant PI3Ka (H1047R), 6 hours, read-out: Avg T-47D IC50
[6] = Homo sapiens, SK-BR-3, 6 h, cellular pAKT
[7] = cellular pAKT, T47D cells, mutant PI3Ka (H1047R), 6 hours, read-out: Avg T-47D IC50

| Compound | IC50 [1, 5] [nM] | IC50 [2, 6] [nM] | EC50 ([3]; Homo sapiens, T47D, 72 h) [nM] | EC50 ([4]; Homo sapiens, SK-BR-3, 72 h) [nM] | IC50 [1, 7] [nM] | IC50 ([2]; cellular pAKT, 6 hours) [nM] | EC50 ([3]; 72 hours) [nM] | EC50 ([4]; 72 hours) [nM] | IC50 ([1]; Homo sapiens, T47D, 6 h, read-out: Avg T-47D IC50, cellular pAKT, T47D cells, mutant PI3Ka (H1047R), 6 hours) [nM] | IC50 ([2]; Homo sapiens, SK-BR-3, cellular pAKT, 6 hours) [nM] |
| --- | --- | --- | --- | --- | --- | --- | --- | --- | --- | --- |
| C[C@@H](Nc1ccccc1C(=O)O)c1cc(F)cc2c(=O)n(C)c(C34CC(C(F)(F)F)(C3)C4)cc12 [Example 521] | – | – | – | – | 1 to 500 | > 15000 | 1 to 500 | 2000 to 15000 | – | – |
| Cc1cc([C@@H](C)Nc2ccc(Cl)nc2C(=O)O)c2cc(N3CCN(c4ccc(F)cc4)CC3)n(C)c(=O)c2c1 [Example 24, (R)-6-chloro-3-((1-(3-(4-(4-fluorophenyl)piperazin-1-yl)-2,7-dimethyl-1-oxo-1,2-dihydroisoquinolin-5-yl)ethyl)amino)picolinic acid] | – | – | 1 to 500 | 2000 to 15000 | – | – | – | – | 1 to 500 | 2000 to 15000 |
| Cc1cc(-c2ncc(-c3cc4c([C@@H](C)Nc5ccccc5C(=O)O)cc(F)cc4c(=O)n3C)cc2F)on1 [Example 520] | – | – | – | – | 1 to 500 | > 15000 | 1 to 500 | > 15000 | – | – |
| Cc1cc(C(C)Nc2ccccc2C(=O)O)c2cc(N3C4CCCC3CC4)n(C)c(=O)c2c1 (stereo not drawn) [Example 69] | 1 to 500 | > 15000 | 500 to 2000 | > 15000 | – | – | – | – | – | – |
| CC(Nc1ccccc1C(=O)O)c1cc(F)cc2c(=O)n(C)c(N3C4CCC3CN(CC(F)(F)F)C4)c(F)c12 (single isomer, unassigned) [Example 567] | – | – | – | – | 1 to 500 | 2000 to 15000 | 1 to 500 | 2000 to 15000 | – | – |
| C[C@@H](Nc1ccccc1C(=O)O)c1cc(F)cc2c(=O)n(C)c(-c3ccc(COC(F)(F)F)nc3)cc12 [Example 540] | 1 to 500 | > 15000 | 1 to 500 | > 15000 | – | – | – | – | – | – |
| C[C@@H](Nc1cccc(F)c1C(=O)O)c1cc(F)cc2c(=O)n(C)c(-c3cnc(-c4cncc(F)c4)c(F)c3)cc12 [Example 404] | 1 to 500 | > 15000 | 1 to 500 | > 15000 | – | – | – | – | – | – |
| C[C@@H](Nc1cccc(F)c1C(=O)O)c1cc(F)cc2c(=O)n(C)c(C3C[C@@H]3C(F)(F)F)cc12 (single isomer, unassigned) [Example 428] | – | – | – | – | 1 to 500 | > 15000 | 500 to 2000 | > 15000 | – | – |
| Cc1cc([C@@H](C)Nc2ccc(F)cc2C(=O)O)c2cc(-c3cnc(C(C)(C)F)c(F)c3)n(C)c(=O)c2c1 [Example 269] | – | – | – | – | 1 to 500 | 2000 to 15000 | 1 to 500 | 2000 to 15000 | – | – |
| Cc1ncc(F)cc1-c1ncc(-c2cc3c([C@@H](C)Nc4ccccc4C(=O)O)cc(F)cc3c(=O)n2C)cc1F [Example 323] | 1 to 500 | 2000 to 15000 | 1 to 500 | 2000 to 15000 | – | – | – | – | – | – |
| Cc1ncc(-c2c(F)c3c([C@@H](C)Nc4ccccc4C(=O)O)cc(F)cc3c(=O)n2C)s1 [Example 582] | 1 to 500 | > 15000 | 1 to 500 | > 15000 | – | – | – | – | – | – |
| Cc1ncc(-c2ncc(-c3cc4c([C@@H](C)Nc5cccc(F)c5C(=O)O)cc(F)cc4c(=O)n3C)cc2F)cc1F [Example 403] | 1 to 500 | > 15000 | 1 to 500 | > 15000 | – | – | – | – | – | – |
| Cc1cc(C(C)Nc2ccccc2C(=O)O)c2cc(N3C[C@@H]4[C@@H](C#N)[C@@H]4C3)n(C)c(=O)c2c1 (stereo partly drawn) [Example 14, 2-((1-(3-((1R,5S,6r)-6-cyano-3-azabicyclo[3.1.0]hexan-3-yl)-2,7-dimethyl-1-oxo-1,2-dihydroisoquinolin-5-yl)ethyl)amino)benzoic acid] | – | > 15000 | – | > 15000 | 1 to 500 | – | 1 to 500 | – | – | – |

Further lines, with some results ahead:

| IC50 [1, 5] [nM] | IC50 [2, 6] [nM] | EC50 ([3]; Homo sapiens, T47D, 72 h) [nM] | EC50 ([4]; Homo sapiens, SK-BR-3, 72 h) [nM] | IC50 [1, 7] [nM] | IC50 ([2]; cellular pAKT, 6 hours) [nM] | EC50 ([3]; 72 hours) [nM] | EC50 ([4]; 72 hours) [nM] | Compound | IC50 ([1]; Homo sapiens, T47D, 6 h, read-out: Avg T-47D IC50, cellular pAKT, T47D cells, mutant PI3Ka (H1047R), 6 hours) [nM] | IC50 ([2]; Homo sapiens, SK-BR-3, cellular pAKT, 6 hours) [nM] |
| --- | --- | --- | --- | --- | --- | --- | --- | --- | --- | --- |
| 500 to 2000 | > 15000 | 500 to 2000 | > 15000 | – | – | – | – | Cc1cc([C@@H](C)Nc2ccccc2C(=O)O)c2cc(N3CCN(c4ncn(C)n4)CC3)n(C)c(=O)c2c1 [Example 253] | – | – |
| 1 to 500 | > 15000 | 500 to 2000 | > 15000 | – | – | – | – | Cc1cc(C(C)Nc2ccccc2C(=O)O)c2cc(-c3cc4ccc(F)cc4[nH]3)n(C)c(=O)c2c1 (stereo not drawn) [Example 75] | – | – |
| – | – | – | – | 1 to 500 | 2000 to 15000 | 1 to 500 | 2000 to 15000 | Cc1cc([C@@H](C)Nc2ccc(F)c(F)c2C(=O)O)c2cc(N3CCN(CC(F)(F)F)CC3)n(C)c(=O)c2c1 [Example 272] | – | – |
| 1 to 500 | 2000 to 15000 | 1 to 500 | > 15000 | – | – | – | – | Cc1cc([C@@H](C)Nc2ccccc2C(=O)O)c2cc(N3CCN(c4cnn(C)c4)CC3)n(C)c(=O)c2c1 [Example 220] | – | – |
| 1 to 500 | 2000 to 15000 | 1 to 500 | 2000 to 15000 | – | – | – | – | Cc1cc([C@@H](C)Nc2cccc(F)c2C(=O)O)c2cc(N3CCN(c4ccc(C)nc4C)CC3)n(C)c(=O)c2c1 [Example 343] | – | – |
| – | > 15000 | – | > 15000 | 1 to 500 | – | 1 to 500 | – | COc1ccc(-c2cc3c(C(C)Nc4ccccc4C(=O)O)cc(C)cc3c(=O)n2C)cn1 (single isomer, unassigned) [Example 155] | – | – |
| 1 to 500 | > 15000 | 1 to 500 | > 15000 | – | – | – | – | Cc1cc([C@@H](C)Nc2ccccc2C(=O)O)c2cc(-c3ccc(OCC4CC4)nc3)n(C)c(=O)c2c1 [Example 208] | – | – |
| 1 to 500 | > 15000 | 1 to 500 | > 15000 | – | – | – | – | C[C@@H](Nc1ccccc1C(=O)O)c1cc(F)cc2c(=O)n(C)c(-c3cnc(C(F)F)s3)cc12 [Example 539] | – | – |
| 1 to 500 | > 15000 | 1 to 500 | > 15000 | – | – | – | – | C[C@@H](Nc1ccccc1C(=O)O)c1cc(F)cc2c(=O)n(C)c(-c3cnc(OC4CC4)s3)cc12 [Example 345] | – | – |
| 500 to 2000 | > 15000 | 500 to 2000 | > 15000 | – | – | – | – | Cc1cc([C@@H](C)Nc2ccccc2C(=O)O)c2cc(N3CCn4ncnc4C3)n(C)c(=O)c2c1 [Example 419] | – | – |
| 1 to 500 | 2000 to 15000 | 1 to 500 | 2000 to 15000 | – | – | – | – | Cc1cc([C@@H](C)Nc2ccccc2C(=O)O)c2cc(N3CCN(c4ccccn4)CC3)n(C)c(=O)c2c1 [Example 186] | – | – |
| – | > 15000 | – | > 15000 | 1 to 500 | – | 500 to 2000 | – | Cc1cc(C(C)Nc2ccccc2C(=O)O)c2cc(N3CC4(CC(C(F)(F)F)C4)C3)n(C)c(=O)c2c1 (single isomer, unassigned) [Example 82] | – | – |
| 1 to 500 | > 15000 | 1 to 500 | > 15000 | – | – | – | – | C[C@@H](Nc1ccccc1C(=O)O)c1cc(F)cc2c(=O)n(C)c(N3CCN(CC(F)(F)F)CC3)cc12 [Example 316] | – | – |
| 1 to 500 | 2000 to 15000 | 1 to 500 | > 15000 | – | – | – | – | Cc1cc([C@@H](C)Nc2ccccc2C(=O)O)c2cc(N3CCN(c4ccccc4F)CC3)n(C)c(=O)c2c1 [Example 221] | – | – |
| – | – | – | – | 1 to 500 | 2000 to 15000 | 1 to 500 | 2000 to 15000 | Cc1cc([C@@H](C)Nc2ccccc2C(=O)O)c2cc(N3CCC(C)(C#N)CC3)n(C)c(=O)c2c1 [Example 164] | – | – |
| 1 to 500 | > 15000 | 1 to 500 | > 15000 | – | – | – | – | COC[C@@H]1CC1c1cc2c([C@@H](C)Nc3ccccc3C(=O)O)cc(C)cc2c(=O)n1C (stereo partly drawn) [Example 304] | – | – |
| 1 to 500 | > 15000 | 1 to 500 | > 15000 | – | – | – | – | Cc1cc([C@@H](C)Nc2ccccc2C(=O)O)c2cc(-c3cnc(C)cn3)n(C)c(=O)c2c1 [Example 275] | – | – |
